Experiments:
Test in all cases: -log10 GI50 (growth inhibition 50%) (-log10(M)); higher = more potent growth inhibition
BT483 = test system: BT483
Outline: (§1)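 Breast cancer cell lines were exposed to each compound for 72 hours at nine doses in 1:5 serial dilution, in triplicate, with a luminescence read-out against a time-zero plate. A Gompertz curve was fitted to the dose-response data by nonlinear least squares. The value is minus log10 of GI50, the molar concentration giving the set level of growth inhibition. Values equal to the top dose carry a < qualifier.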

600MPE = test system: 600MPE
Outline: as §1

MDAMB453 = test system: MDAMB453
Outline: as §1

HCC1806 = test system: HCC1806
Outline: as §1

HS578T = test system: HS578T
Outline: as §1

MCF7 = test system: MCF7
Outline: as §1

CAMA1 = test system: CAMA1
Outline: as §1

AU565 = test system: AU565
Outline: as §1

ZR751 = test system: ZR751
Outline: as §1

BT20 = test system: BT20
Outline: as §1

HCC1143 = test system: HCC1143
Outline: as §1

HCC1187 = test system: HCC1187
Outline: as §1

SKBR3 = test system: SKBR3
Outline: as §1

MDAMB175VII = test system: MDAMB175VII
Outline: as §1

SUM229PE = test system: SUM229PE
Outline: as §1

SUM159PT = test system: SUM159PT
Outline: as §1

MDAMB415 = test system: MDAMB415
Outline: as §1

T47D = test system: T47D
Outline: as §1

HCC38 = test system: HCC38
Outline: as §1

BT474 = test system: BT474
Outline: as §1

Row | Compound | -log10 GI50 (BT483) | -log10 GI50 (MDAMB453) | -log10 GI50 (HCC1806) | -log10 GI50 (MCF7) | -log10 GI50 (BT20) | -log10 GI50 (HCC1143) | -log10 GI50 (HCC1187) | -log10 GI50 (SKBR3) | -log10 GI50 (MDAMB175VII) | -log10 GI50 (MDAMB415) | -log10 GI50 (T47D) | -log10 GI50 (HCC38) | -log10 GI50 (BT474) | -log10 GI50 (600MPE) | -log10 GI50 (HS578T) | -log10 GI50 (CAMA1) | -log10 GI50 (AU565) | -log10 GI50 (ZR751) | -log10 GI50 (SUM229PE) | -log10 GI50 (SUM159PT)
1 | Cn1c(=O)n(-c2ccc(C(C)(C)C#N)cc2)c2c3cc(-c4cnc5ccccc5c4)ccc3ncc21 [BEZ235] | 5.87 | 6.92 | < 4.48 | < 4.48 | 5.6 | < 4.48 | < 4.48 | < 4.48 | 6.46 | 6.79 | 6.55 | < 4.48 | 6.65 | < 4.48 | < 4.48 | 6.67 | 6.59 | 5.74 | 6.67 | 7.44
2 | COc1ccc(-c2cc3c(C)nc(N)nc3n([C@H]3CC[C@H](OCCO)CC3)c2=O)cn1 | – | 6.88 | 6.43 | 7.39 | 5.44 | 6.86 | 8.01 | 7.33 | 7.23 | 7.08 | 7.27 | 6.51 | 6.91 | 7.32 | 5.26 | 6.74 | 7.51 | 7.62 | 6.25 | 6.73
3 | Cn1cnc2c(F)c(Nc3ccc(Br)cc3Cl)c(C(=O)NOCCO)cc21 [AZD6244] | < 4.3 | < 4.3 | < 4.3 | < 4.3 | < 4.3 | < 4.3 | < 4.3 | < 4.3 | 5.59 | 4.96 | < 4.3 | < 4.3 | < 4.3 | 6.24 | 4.75 | < 4.3 | < 4.3 | 4.75 | 7.13 | 6.66
4 | CN(C)C/C=C/C(=O)Nc1cc2c(Nc3ccc(F)c(Cl)c3)ncnc2cc1O[C@H]1CCOC1 [BIBW2992] | 5.78 | 7.04 | 6.27 | – | 5.56 | 5.86 | – | 7.88 | 8.35 | 5.86 | – | 5.74 | 8.23 | 5.63 | – | 5.65 | – | 5.63 | 5.95 | 5.59
5 | CCC[C@H](N[C@H]1CCc2cc(F)cc(F)c2C1)C(=O)Nc1cn(C(C)(C)CNCC(C)(C)C)cn1 | – | 4.59 | < 4.18 | 4.49 | 4.76 | < 4.18 | 5.48 | 4.91 | 5.24 | 4.9 | 4.91 | < 4.18 | 4.37 | < 4.18 | 4.51 | < 4.18 | 4.98 | 4.72 | < 4.18 | < 4.18
6 | CCN(CC)C(=S)SSC(=S)N(CC)CC [Disulfiram] | 4.18 | 6.84 | – | 4.45 | 7.3 | 6.95 | 6.49 | 7.1 | 7.02 | 4.89 | 7.01 | 5.96 | < 4.18 | 7.1 | 5.44 | 4.85 | 6.84 | – | 4.5 | 6.65
7 | CC(=O)NCC(=O)N1[C@@H]2CC[C@H]1c1ccc(Nc3ncc(C(F)(F)F)c(NC4CCC4)n3)cc12 | – | 5.62 | 5.55 | 5.71 | 5.9 | 5.82 | 7.1 | 5.38 | 5.63 | 5.18 | 5.14 | 6.2 | 5.22 | 6.03 | 6.05 | 5.44 | 5.57 | 4.99 | 6.1 | 6.37
8 | COc1cc(Nc2c(C#N)cnc3cc(OCCCN4CCN(C)CC4)c(OC)cc23)c(Cl)cc1Cl [Bosutinib] | 5.43 | – | 5.69 | 5.59 | 5.89 | 5.31 | 5.5 | 5.41 | 6.07 | 5.73 | – | 6.05 | 5.71 | 5.27 | 5.8 | 5.11 | 5.67 | 4.94 | 5.88 | 5.86
9 | C[C@@H](Oc1cc(-c2cnn(C3CCNCC3)c2)cnc1N)c1c(Cl)ccc(F)c1Cl | – | 5.59 | 6.11 | 5.91 | 5.42 | 5.7 | 7.24 | 5.14 | 5.23 | 5.69 | 5.34 | 5.63 | 5.11 | 6.21 | 5.85 | 5.23 | 5.55 | 5.44 | 5.57 | 5.79
10 | Nc1[nH]nc2nnc(-c3c(-c4ccccc4)nn4ccccc34)cc12 | 4.45 | < 4 | – | < 4.48 | 4.55 | 4.6 | 4.7 | < 4 | 5.08 | < 4 | < 4.48 | 4.24 | 4.69 | 4.65 | < 4.48 | < 4 | < 4.48 | 5.23 | < 4.48 | < 4.48
11 | N.N.[Cl][Pt][Cl] [Cisplatin] | 4.05 | 5.16 | 5.68 | 4.66 | – | 5.04 | 5.67 | 4.77 | 5.37 | 3.84 | 5.27 | 5.78 | 4.42 | 4.33 | 5.16 | 4.39 | 5.72 | 4.99 | 5.26 | 5.4
12 | Cn1ncc(Cl)c1-c1cc(C(=O)N[C@H](CN)Cc2ccc(F)c(F)c2)oc1Cl | – | 7.2 | 5.25 | 6.91 | 5.25 | 5.41 | 8.02 | 6.93 | 6.56 | 7.24 | 7.35 | 5.99 | 7.16 | – | 5.58 | 7.02 | 6.09 | 8.26 | 5.59 | 6.28

More lines, main results first:

Row | -log10 GI50 (BT483) | -log10 GI50 (MDAMB453) | -log10 GI50 (HCC1806) | -log10 GI50 (MCF7) | -log10 GI50 (BT20) | -log10 GI50 (HCC1143) | -log10 GI50 (HCC1187) | -log10 GI50 (SKBR3) | -log10 GI50 (MDAMB175VII) | -log10 GI50 (MDAMB415) | -log10 GI50 (T47D) | -log10 GI50 (HCC38) | -log10 GI50 (BT474) | Compound | -log10 GI50 (600MPE) | -log10 GI50 (HS578T) | -log10 GI50 (CAMA1) | -log10 GI50 (AU565) | -log10 GI50 (ZR751) | -log10 GI50 (SUM229PE) | -log10 GI50 (SUM159PT)
13 | 4.24 | 3.97 | 4.44 | 4.31 | 4.69 | 4.38 | 3.77 | 4.05 | 4.47 | 4.29 | 4.46 | 4.3 | 3.98 | CCCCCN(C)CCC(O)(P(=O)(O)O)P(=O)(O)O [Ibandronate sodium] | 3.67 | 5.03 | 3.82 | 3.74 | 4.16 | 4.27 | 4.37
14 | 4.78 | 4.77 | 5.37 | < 4.18 | 5.7 | 4.24 | 5.12 | 4.8 | 5.52 | < 4.18 | < 4.18 | < 4.18 | 4.98 | C#Cc1cccc(Nc2ncnc3cc(OCCOC)c(OCCOC)cc23)c1 [Erlotinib] | 4.3 | < 4.18 | < 4.18 | 4.93 | < 4.18 | 4.95 | 4.93
15 | 5.19 | 4.25 | 4.32 | 5.25 | 4.41 | 4.67 | 4.78 | 4.33 | 5.23 | 4.46 | 4.51 | 4.67 | 4.8 | COc1ccc(C2=N[C@@H](c3ccc(Cl)cc3)[C@@H](c3ccc(Cl)cc3)N2C(=O)N2CCNC(=O)C2)c(OC(C)C)c1 [Nutlin 3a] | 4.81 | < 4.18 | 4.34 | 4.79 | 5.51 | 4.63 | 4.78
16 | 7.14 | 7.31 | 6.82 | 7.1 | 6.41 | 7.09 | 6.76 | 7.25 | 6.41 | 7.66 | 6.82 | 7.45 | 7.46 | Cc1[nH]c2ccccc2c1CCNCc1ccc(/C=C/C(=O)NO)cc1 [LBH589] | 6.72 | 6.55 | 7.3 | 6.98 | 6.8 | 6.57 | 6.88
17 | – | 4.58 | < 4.18 | 4.67 | 5.18 | 5.05 | 6.22 | 4.33 | < 4.18 | 5.03 | 4.82 | 5.96 | < 4.18 | Cc1cncc2cccc(S(=O)(=O)N3CCCN(C(=O)CN)C[C@@H]3C)c12 [Glycyl H1152] | < 4.18 | 5.82 | < 4.48 | 5.14 | 4.81 | 5.31 | 5.76
18 | – | 5.55 | 5.99 | – | 5.42 | 5.3 | 5.25 | 5.53 | – | – | 5.55 | 5.45 | 5.27 | O=C(c1ccc(Nc2nccc(-c3cc4ccccc4s3)n2)cc1)N1CCC(N2CCCC2)CC1 [IKK 16] | 5.11 | 5.53 | 5.57 | 5.58 | 5.29 | 6 | 5.8
19 | 8.78 | 7.31 | 4.01 | 6.84 | 7.17 | 6.27 | 7.78 | 8.09 | 8.43 | 8.69 | 6.36 | 7.31 | 7.62 | CO[C@H]1C[C@@H]2CC[C@@H](C)[C@@](O)(O2)C(=O)C(=O)N2CCCC[C@H]2C(=O)O[C@H]([C@H](C)C[C@@H]2CC[C@@H](O)[C@H](OC)C2)CC(=O)[C@H](C)/C=C(\C)[C@@H](O)[C@@H](OC)C(=O)[C@H](C)C[C@H](C)/C=C/C=C/C=C/1C [Rapamycin] | 5.12 | 4.35 | 7.82 | 7.62 | – | 4.86 | 7.34
20 | 6.57 | – | 4.69 | 5.8 | 6.18 | 5.8 | 6.1 | 7.27 | 4.66 | 8.36 | 5.85 | 4.91 | 7.57 | CO[C@H]1C[C@@H]2CC[C@@H](C)[C@@](O)(O2)C(=O)C(=O)N2CCCC[C@H]2C(=O)O[C@H]([C@H](C)C[C@@H]2CC[C@@H](OC(=O)C(C)(CO)CO)[C@H](OC)C2)CC(=O)[C@H](C)/C=C(\C)[C@@H](O)[C@@H](OC)C(=O)[C@H](C)C[C@H](C)/C=C/C=C/C=C/1C [Temsirolimus] | 4.74 | 4.66 | – | – | < 3.88 | 4.87 | –
21 | 5.23 | 6.01 | 5.97 | 6.4 | 5.29 | 5.69 | 6.05 | – | 5.44 | 6.2 | 5.41 | 5.77 | 4.61 | Cc1cc(C(=O)N2CCN(c3cccc(Cl)c3)CC2)n(-c2ccccc2)n1 [XRP44X] | < 3.88 | 6 | 6.01 | 6.35 | 5.91 | 6.6 | 6.21
22 | 6.84 | 7.69 | 7.12 | 6.62 | – | 7.1 | 7.8 | 7.79 | 7.75 | 7.52 | 7.62 | 7.56 | 7.84 | COC1=C2C[C@@H](C)C[C@H](OC)[C@H](O)[C@@H](C)/C=C(\C)[C@H](OC(N)=O)[C@@H](OC)/C=C\C=C(/C)C(=O)NC(=CC1=O)C2=O [Geldanamycin] | 7.43 | 7.28 | 7.47 | 7.35 | 7.06 | 7.91 | 8.21

Source: the supplement of paper PMC3937590
